In the assay the test system is male white Swiss mice (CD-1). Nature of the assay: Capsaicin-induced pain model. It is filed as in vivo. The following applies: Mus musculus, ip; i.p. 30 min before capsaicin, mice. As to the method: The tests were carried out using male white Swiss mice (CD-1) weighing 18-25 g. All procedures were carried out in accordance with Polish and international guidelines on ethics of animal testing, after obtaining appropriate institutional approval. The study group consisted of 8-10 animals. The tested and reference substances were administered intraperitoneally 30 minutes before given test as suspension in 1% aqueous solution of Tween. All tests/models were carried out based on the procedures described in the specialist literature: the formalin test (Beirith, A.; Santos, A. R.; Calixto, J. B.; Rodrigues, A. L.; Creczynski-Pasa, T. B. Eur. J. Pharmacol. 1998, 345, 233-245), the model of capsaicin-induced pain (Mogilski, S.; Kubacka, M.; Redzicka, A.; Kazek, G.; Dudek, M.; Malinka, W.; Filipek, B. Pharmacol. Biochem. Behav. 2015, 133, 99-110), the model of oxaliplatin-induced neuropathic pain—von Frey test (Sałat, K.; Cios, A.; Wyska, E.; Satat, R.; Mogilski, S.; Filipek, B.; Wigȩkowski, K.; Malawska, B. Pharmacol. Biochem. Behav. 2014, 122, 173-181).
This test assesses the time of licking and/or biting the hind paw into which mice were injected subplantarly with capsaicin in an amount of 1.6 μg, dissolved in 20 μl of a mixture containing 0.9% saline and ethanol (5% of the final volume). Observation was carried out […] after capsaicin administration. Test compounds were administered intraperitoneally 30 minutes before administration of capsaicin. Inhibition of nociceptive reaction—shortening the time of licking and biting the paw was the measure of antinociceptive activity of the compound tested.
Valproic acid (VPA) was the reference compound in this test. […] Compound 6 was administered at 20 mg/kg, 30 mg/kg and 40 mg/kg. Test compounds were administered as a suspension in 1.0% Tween 80 solution. The control group consisted of mice treated with vehicle alone (1% Tween 80 solution). The nociceptive reaction time in this group was 43.29±3.21 seconds.

The ED50 is the dose that gives a 50% effect, or the effect in half of the subjects. Higher therefore signals a need for a large dose. As to `O=C(C(c1ccccc1)N1C(=O)CCC1=O)N1CCN(c2cccc(C(F)(F)F)c2)CC1` (racemic) [Compound 6, 1-(2-Oxo-1-phenyl-2-(4-(3-(trifluoromethyl)phenyl)piperazin-1-yl)ethyl)pyrrolidine-2,5-dione], the 50% effect level (ED50) was put at a dose of 17.9 mg/kg.

The values above are taken from US12139458B2, “(2,5-dioxopyrrolidin-1-yl)(phenyl)-acetamide derivatives and their use in the treatment of neurological diseases” (UNIWERSYTET JAGIELLONSKI, priority 2019, dated 2024).
